Laboratory results: ChEMBL document CHEMBL1125044, “1,2,4-Diazaphosphole nucleosides. Synthesis, structure, and antitumor activity of nucleosides with a lambda 3 phosphorus atom” (J Med Chem, 1990)
Calls of active or inactive are those of the source. The rule behind the calls is not given here.

Tests used:
[1] = In vitro antiviral activity against number of DNA virus was reported; Inactive; format: functional
[2] = Lethal dose in L1210-bearing female BDF1 mice; format: toxicity, organism-based; settings: BDF1, mouse, in vivo
[3] = In vitro antiviral activity against number of RNA virus was reported; Inactive; format: functional
Mus musculus [4] = species: Mus musculus; test: Compound was tested against L1210 infected BDF1 mice expressed as weight change at 24 hour; format: functional
Mus musculus [5] = test: Compound was tested against L1210 infected BDF1 mice at 480 mg/kg expressed as percent increase in life span; format: functional
Mus musculus [6] = species: Mus musculus; test: Compound was tested against L1210 infected BDF1 mice expressed as weight change at 72 hour; format: functional

SMILES | Activity [1] | LD50 [2] [mg/kg] | Activity [3] | Weight change (Mus musculus [4]) [g] | ILS at 480 mg/kg (Mus musculus [5]) [%] | Weight change (Mus musculus [6]) [g]
NC(=O)c1nn(C2O[C@H](CO)[C@@H](O)[C@H]2O)cp1 (stereo partly specified) | inactive | 480 | inactive | – | – | –
NC(=S)c1nn(C2O[C@H](CO)[C@@H](O)[C@H]2O)cp1 (stereo partly specified) | – | – | – | -1.67 | 25 | -0.67
